# System: antibiotic sensitive microorganism associated with red blood cells
# Assay: PCR amplification of DNA from red blood cells of HIV-positive patients with MSP2 Primer Pairs 1 and 2, before and after long-term antibiotic treatment
# Format: in vivo, human (HIV-positive patients)
# Method: Standard procedures for separating RBCs from buffy coat and other peripheral blood components are known. Peripheral blood was processed on a Ficoll gradient to separate the buffy coat from red blood cells. […] This lysate was prepared by repeated freeze-thawing of red blood cells isolated from the buffy coat, strong shaking by vortex, and a low speed centrifugation (1,500 g×10 mins). A pellet and supernatant fraction were obtained and tested. The primers described above only amplified DNA in the supernatant fraction, but not in the pellet.
# Five HIV-positive patients were maintained on their antiretroviral therapy, but received for at least three months a daily antibiotic treatment (azithromycin 250 mg/day or doxycycline 100 mg/day). Blood samples were fractionated to recover a red blood cell fraction on day 0 and after 3 months of antibiotic.
# Blood samples were obtained from African and European Patients who were HIV-negative or HIV-positive. Red blood cells were isolated from buffy coat and other blood components by separation on a Ficoll gradient as described above. […] Similar results were obtained using the primers described in Appendix 3. […] However, amplified DNA was detected in this patient using the Primer Pairs 1 and 2 shown in Appendix 2, but the amplified DNA bands were weaker than those for chronically-infected HIV-positive patients. […]
structure (smiles),measurement,setting,value
CC[C@H]1OC(=O)[C@H](C)[C@@H](O[C@H]2C[C@@](C)(OC)[C@@H](O)[C@H](C)O2)[C@H](C)[C@@H](O[C@@H]2O[C@H](C)C[C@H](N(C)C)[C@H]2O)[C@](C)(O)C[C@@H](C)CN(C)[C@H](C)[C@@H](O)[C@]1(C)O [azithromycin],intensity of the bands amplified using these primers,"HIV-positive patients, long term antibiotic treatment for more than three months, Primer Pairs 1 and 2",decrease
same,amount of DNA amplified after 3 months of antibiotic treatment vs day 0,"five HIV-positive patients on antiretroviral therapy, daily azithromycin 250 mg/day or doxycycline 100 mg/day for at least three months, red blood cell fraction",significantly less
